The values below are quoted from earlier work in patent publication US8859603B2, “Method for solubilizing metronidazole” (Galderma S.A., priority 2004, dated 2014).

The conditions of this data set: no solubilizer.

`Cc1ncc([N+](=O)[O-])n1CCO` [metronidazole, 1-(2-hydroxyethyl)-2-methyl-5-nitroimidazole]: the “intrinsic solubility of metronidazole in an aqueous phase” value is recorded as ~0.9 % (m/m).
